Among the data in BindingDB's records for patent WO2022081807 (THE BROAD INSTITUTE, INC., 2022) are IC50 values, retold here.

Chain of Histone acetyltransferase KAT6B (Q8WYB5 whole entry): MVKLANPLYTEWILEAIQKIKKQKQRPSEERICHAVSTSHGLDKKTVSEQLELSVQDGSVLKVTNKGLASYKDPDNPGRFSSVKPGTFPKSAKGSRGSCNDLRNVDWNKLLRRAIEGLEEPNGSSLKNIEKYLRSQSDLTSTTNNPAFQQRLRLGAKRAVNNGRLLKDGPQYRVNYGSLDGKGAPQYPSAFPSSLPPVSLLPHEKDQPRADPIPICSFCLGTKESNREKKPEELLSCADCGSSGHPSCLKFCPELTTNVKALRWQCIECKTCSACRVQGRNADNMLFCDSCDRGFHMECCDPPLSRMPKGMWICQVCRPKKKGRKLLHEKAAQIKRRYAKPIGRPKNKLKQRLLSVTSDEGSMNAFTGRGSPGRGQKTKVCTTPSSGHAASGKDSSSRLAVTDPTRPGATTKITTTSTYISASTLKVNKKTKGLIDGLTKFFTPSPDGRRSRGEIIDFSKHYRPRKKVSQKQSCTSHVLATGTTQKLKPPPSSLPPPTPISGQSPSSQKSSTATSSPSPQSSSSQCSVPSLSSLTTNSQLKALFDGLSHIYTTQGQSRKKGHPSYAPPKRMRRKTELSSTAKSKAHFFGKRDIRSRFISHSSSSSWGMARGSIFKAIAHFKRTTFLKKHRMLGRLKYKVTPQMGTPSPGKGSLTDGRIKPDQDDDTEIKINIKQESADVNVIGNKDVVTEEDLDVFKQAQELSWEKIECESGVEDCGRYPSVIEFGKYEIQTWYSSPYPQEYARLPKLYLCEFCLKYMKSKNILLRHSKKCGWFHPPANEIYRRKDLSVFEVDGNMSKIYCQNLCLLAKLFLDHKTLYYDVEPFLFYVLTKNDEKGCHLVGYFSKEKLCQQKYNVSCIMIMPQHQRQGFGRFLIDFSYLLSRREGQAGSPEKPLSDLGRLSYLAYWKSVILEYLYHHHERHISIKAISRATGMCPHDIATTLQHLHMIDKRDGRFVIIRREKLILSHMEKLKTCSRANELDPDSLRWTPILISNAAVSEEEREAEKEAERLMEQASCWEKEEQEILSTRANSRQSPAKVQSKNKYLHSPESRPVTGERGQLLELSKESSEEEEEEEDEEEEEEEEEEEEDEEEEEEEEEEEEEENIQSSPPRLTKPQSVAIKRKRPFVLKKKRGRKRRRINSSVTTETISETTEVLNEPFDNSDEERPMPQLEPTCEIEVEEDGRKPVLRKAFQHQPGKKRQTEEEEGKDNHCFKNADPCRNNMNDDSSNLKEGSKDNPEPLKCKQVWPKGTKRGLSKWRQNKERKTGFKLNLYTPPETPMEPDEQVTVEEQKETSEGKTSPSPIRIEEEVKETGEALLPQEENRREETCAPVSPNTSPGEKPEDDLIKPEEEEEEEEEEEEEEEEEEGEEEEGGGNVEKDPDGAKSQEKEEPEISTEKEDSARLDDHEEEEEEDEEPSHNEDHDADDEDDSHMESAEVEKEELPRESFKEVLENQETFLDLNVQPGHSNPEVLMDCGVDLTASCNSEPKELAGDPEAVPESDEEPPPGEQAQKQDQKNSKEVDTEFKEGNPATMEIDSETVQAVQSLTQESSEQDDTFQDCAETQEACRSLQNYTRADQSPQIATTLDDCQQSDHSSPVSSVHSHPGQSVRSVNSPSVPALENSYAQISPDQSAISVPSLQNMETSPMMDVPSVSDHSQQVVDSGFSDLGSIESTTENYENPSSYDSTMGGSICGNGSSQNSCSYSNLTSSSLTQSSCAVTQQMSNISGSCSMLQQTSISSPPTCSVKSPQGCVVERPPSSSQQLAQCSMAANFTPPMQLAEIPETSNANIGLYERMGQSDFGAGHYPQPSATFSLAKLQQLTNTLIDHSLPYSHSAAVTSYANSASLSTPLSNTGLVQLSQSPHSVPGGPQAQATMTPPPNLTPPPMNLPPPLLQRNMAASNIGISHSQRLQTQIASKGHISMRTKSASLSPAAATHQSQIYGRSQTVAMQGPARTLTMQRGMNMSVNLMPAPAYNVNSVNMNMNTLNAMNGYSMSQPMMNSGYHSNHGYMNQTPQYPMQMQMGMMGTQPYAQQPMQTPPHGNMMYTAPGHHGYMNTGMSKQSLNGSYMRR

For one assay, the target named is T1, Histone acetyltransferase KAT6A [507-778] (Human, UniProt Q92794).
T1 construct: 507-778
T1 sequence (Q92794 whole entry): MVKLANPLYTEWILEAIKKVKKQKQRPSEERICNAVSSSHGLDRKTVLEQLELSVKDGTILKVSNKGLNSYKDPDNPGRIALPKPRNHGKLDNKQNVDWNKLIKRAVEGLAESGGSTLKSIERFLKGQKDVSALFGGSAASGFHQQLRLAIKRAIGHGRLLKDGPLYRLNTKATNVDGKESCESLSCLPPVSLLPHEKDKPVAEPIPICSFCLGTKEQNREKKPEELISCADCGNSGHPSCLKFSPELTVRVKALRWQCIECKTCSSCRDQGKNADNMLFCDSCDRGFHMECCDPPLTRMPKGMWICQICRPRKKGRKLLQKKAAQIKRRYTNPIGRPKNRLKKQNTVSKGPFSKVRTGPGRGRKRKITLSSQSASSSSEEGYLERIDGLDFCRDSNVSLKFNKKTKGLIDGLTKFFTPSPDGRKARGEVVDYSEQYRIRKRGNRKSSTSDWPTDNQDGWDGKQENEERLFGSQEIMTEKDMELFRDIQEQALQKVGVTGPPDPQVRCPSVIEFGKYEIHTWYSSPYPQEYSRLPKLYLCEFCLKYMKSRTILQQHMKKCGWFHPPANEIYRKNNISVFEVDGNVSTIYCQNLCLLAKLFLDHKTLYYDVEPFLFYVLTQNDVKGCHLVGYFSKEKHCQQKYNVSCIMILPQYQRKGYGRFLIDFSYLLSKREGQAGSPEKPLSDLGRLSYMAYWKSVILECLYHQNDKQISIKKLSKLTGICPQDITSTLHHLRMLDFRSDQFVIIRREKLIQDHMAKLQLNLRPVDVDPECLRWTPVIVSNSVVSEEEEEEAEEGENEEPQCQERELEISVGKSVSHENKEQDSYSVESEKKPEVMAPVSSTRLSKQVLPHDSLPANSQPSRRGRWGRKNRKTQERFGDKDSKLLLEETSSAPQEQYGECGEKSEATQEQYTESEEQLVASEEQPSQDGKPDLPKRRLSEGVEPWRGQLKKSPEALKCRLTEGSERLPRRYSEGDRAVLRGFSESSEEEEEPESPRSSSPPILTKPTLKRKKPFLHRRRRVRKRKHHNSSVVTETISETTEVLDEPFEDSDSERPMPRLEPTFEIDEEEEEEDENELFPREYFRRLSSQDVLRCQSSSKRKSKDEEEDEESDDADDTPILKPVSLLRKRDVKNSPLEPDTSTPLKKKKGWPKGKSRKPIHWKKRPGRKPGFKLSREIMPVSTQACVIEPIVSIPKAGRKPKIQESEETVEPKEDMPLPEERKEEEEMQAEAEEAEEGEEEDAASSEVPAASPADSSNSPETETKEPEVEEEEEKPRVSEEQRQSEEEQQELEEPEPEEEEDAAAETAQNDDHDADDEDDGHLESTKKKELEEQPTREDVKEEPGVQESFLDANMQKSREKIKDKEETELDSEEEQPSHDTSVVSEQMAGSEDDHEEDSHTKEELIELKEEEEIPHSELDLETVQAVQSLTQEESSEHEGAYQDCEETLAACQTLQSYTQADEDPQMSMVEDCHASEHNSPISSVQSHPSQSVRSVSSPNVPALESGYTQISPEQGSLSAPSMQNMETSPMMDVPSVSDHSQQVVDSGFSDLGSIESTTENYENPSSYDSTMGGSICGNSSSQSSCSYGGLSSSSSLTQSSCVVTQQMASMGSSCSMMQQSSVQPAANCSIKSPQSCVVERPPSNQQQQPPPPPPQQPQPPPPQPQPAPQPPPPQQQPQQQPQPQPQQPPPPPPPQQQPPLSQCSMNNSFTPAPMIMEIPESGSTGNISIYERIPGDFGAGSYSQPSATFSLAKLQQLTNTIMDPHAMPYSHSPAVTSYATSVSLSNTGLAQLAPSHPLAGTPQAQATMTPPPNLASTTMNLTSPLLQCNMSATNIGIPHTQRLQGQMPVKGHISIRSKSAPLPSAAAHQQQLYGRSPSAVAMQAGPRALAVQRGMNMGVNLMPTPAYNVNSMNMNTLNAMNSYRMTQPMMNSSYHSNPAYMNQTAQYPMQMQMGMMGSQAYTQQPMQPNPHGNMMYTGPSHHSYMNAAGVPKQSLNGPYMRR
Nature of the assay: Kat6a Activity Assay.
Take `O=C(NS(=O)(=O)c1cccc2c1OC(F)(F)C(F)(F)O2)c1cc2c(F)cc(N3CCC3)cc2o1` [WO2022081807, Example 140]: the IC50 – broadly, the point on the concentration scale where inhibition reaches its midpoint – worked out at 28 nM.
`O=C(NS(=O)(=O)c1cc(Br)ccc1OC(F)(F)F)c1cc2c(F)cc(N3CCC3)cc2o1` [WO2022081807, Example 82] came in with an IC50 of 19 nM.
The same measure, in the same setting: the figure for `COc1ccc(C)cc1S(=O)(=O)NC(=O)c1cc2c(F)cc(N3CC(F)C3)cc2o1` [WO2022081807, Example 158] is 26 nM; for `C[C@H](Oc1ccccc1S(=O)(=O)NC(=O)c1cc2c(F)cc(N3CCC3)cc2o1)C(F)(F)F` [WO2022081807, Example 15] it is 47 nM; for `CC(C)Oc1cccc(Br)c1S(=O)(=O)NC(=O)c1cc2c(F)cc(N3CCC3)cc2o1` [WO2022081807, Example 39] it is 79 nM.
Same read-out and setting: the figure for `CCc1cc(S(=O)(=O)NC(=O)c2cc3c(F)cc(N4CCC4)cc3o2)c(C)s1` [WO2022081807, Example 36] is 367 nM.
The same measure, in the same setting: as for `CCOc1cccc(Oc2ccccc2)c1S(=O)(=O)NC(=O)c1cc2c(F)cc(N3CCC3)cc2o1` [WO2022081807, Example 7], the figure is 4.15 nM; as for `Cc1ccc2cccc(S(=O)(=O)NC(=O)c3cc4c(F)cc(N5CCC5)cc4o3)c2n1` [WO2022081807, Example 130], 14 nM.
For the molecule `CCOc1ccccc1S(=O)(=O)NC(=O)c1cc2c(F)cc(N3CC(C)(F)C3)cc2o1` [WO2022081807, Example 116], 2290 nM corresponded to half-maximal inhibition (IC50).
On the same count and under the same terms, as for `Cc1ccc(OC(C)C)c(S(=O)(=O)NC(=O)c2cc3c(F)cc(N4CCC4)cc3o2)c1` [WO2022081807, Example 134], the figure is 18 nM.
The same measure, in the same setting: as for `O=C(NS(=O)(=O)c1c(NCC(F)F)cccc1C(F)(F)F)c1cc2c(F)cc(N3CCC3)cc2o1` [WO2022081807, Example 92], the figure is 464 nM; as for `CC(C)c1ccc(C(C)C)c(S(=O)(=O)NC(=O)c2cc3c(F)cc(N4CCC4)cc3o2)c1` [WO2022081807, Example 30], 25 nM; as for `CCOc1cccc(C(C)C)c1S(=O)(=O)NC(=O)c1cc2c(F)cc(N3CCC3)cc2o1` [WO2022081807, Example 23], 29 nM.
On the same count and under the same terms, as for `COc1ccc(Br)cc1S(=O)(=O)NC(=O)c1cc2c(F)cc(N3CCC3)cc2o1` [WO2022081807, Example 139], the figure is 27 nM; as for `Cc1cccc(C(C)C)c1S(=O)(=O)NC(=O)c1cc2c(F)cc(N3CCC3)cc2o1` [WO2022081807, Example 53], 70 nM; as for `O=C(NS(=O)(=O)c1cc(Br)cc2c1OCC2)c1cc2c(F)cc(N3CCC3)cc2o1` [WO2022081807, Example 177], 21 nM.
Molecule `CCOc1ccc(CC)cc1S(=O)(=O)NC(=O)c1cc2c(F)cc(N3CC(F)C3)cc2o1` [WO2022081807, Example 153] displayed a concentration for half-maximal inhibition (IC50) of 11 nM.
On the same count and under the same terms, the figure for `COc1ccc(C(C)C)cc1S(=O)(=O)NC(=O)c1cc2c(F)cc(N3CCC3)cc2o1` [WO2022081807, Example 128] is 8.15 nM.
Still for that read-out and setting: the figure for `Cc1ccc(OCC2CCCC2)c(S(=O)(=O)NC(=O)c2cc3c(F)cc(N4CCC4)cc3o2)c1` [WO2022081807, Example 9] is 21 nM; for `Cc1ccc(S(=O)(=O)NC(=O)c2cc3c(F)cc(N4CCC4)cc3o2)c2ccncc12` [WO2022081807, Example 191] it is 310 nM.
On the same count and under the same terms, the figure for `CN(C(=O)Oc1ccccc1S(=O)(=O)NC(=O)c1cc2c(F)cc(N3CCC3)cc2o1)c1ccccc1` [WO2022081807, Example 62] is 196 nM; for `CCOc1ccc(Br)cc1S(=O)(=O)NC(=O)c1cc2c(F)cc(N3CCC3)cc2o1` [WO2022081807, Example 135] it is 17 nM.
Turning to `CCOc1ccc(C(F)(F)F)cc1S(=O)(=O)NC(=O)c1cc2c(F)cc(N3CCC3)cc2o1` [WO2022081807, Example 209], the midpoint of inhibition, the IC50, lay at 27 nM.
Same read-out and setting: as for `COc1cccc(N2CCOCC2)c1S(=O)(=O)NC(=O)c1cc2c(F)cc(N3CCC3)cc2o1` [WO2022081807, Example 137], the figure is 26 nM; as for `CCS(=O)(=O)c1nc2ccccn2c1S(=O)(=O)NC(=O)c1cc2c(F)cc(N3CC(F)C3)cc2o1` [WO2022081807, Example 167], 517 nM; as for `COc1ccc(N2CCCC2c2ccccc2)cc1S(=O)(=O)NC(=O)c1cc2c(F)cc(N3CCC3)cc2o1` (stereo not drawn) [WO2022081807, Example 201], 0.81 nM.
In turn, `COc1ccc(C)cc1S(=O)(=O)NC(=O)c1cc2c(F)cc(N3CCC3)cc2o1` [WO2022081807, Example 156] yielded a half-inhibitory concentration (IC50) of 20 nM.
Take `COc1ccc(C2=CCN(C(=O)OC(C)(C)C)CC2)cc1S(=O)(=O)NC(=O)c1cc2c(F)cc(N3CCC3)cc2o1` [WO2022081807, Example 197]: the IC50 was found to be 6.06 nM.
Same read-out and setting: as for `COc1ccc(-c2cccc(F)c2)cc1S(=O)(=O)NC(=O)c1cc2c(F)cc(N3CCC3)cc2o1` [WO2022081807, Example 198], the figure is 12 nM; as for `C[C@@H](Oc1ccccc1S(=O)(=O)NC(=O)c1cc2c(F)cc(N3CCC3)cc2o1)C(F)(F)F` [WO2022081807, Example 14], 28 nM; as for `CC1(C)CCN1c1cc(F)c2cc(C(=O)NS(=O)(=O)c3ccccc3-c3ccccc3)oc2c1` [WO2022081807, Example 217], 1190 nM.
The same measure, in the same setting: the figure for `CC(Oc1ccccc1S(=O)(=O)NC(=O)c1cc2c(F)cc(N3CCC3)cc2o1)C(F)(F)F` (racemic) [WO2022081807, Example 13] is 19 nM; for `O=C(NS(=O)(=O)c1cccc2ccc(Cl)nc12)c1cc2c(F)cc(N3CC(F)C3)cc2o1` [WO2022081807, Example 154] it is 13 nM; for `O=C(NS(=O)(=O)c1ccccc1OC1CC1)c1cc2c(F)cc(N3CCC3)cc2o1` [WO2022081807, Example 131] it is 23 nM.
On the same count and under the same terms, as for `O=C(NS(=O)(=O)c1cccc2c1OCC2)c1cc2c(F)cc(N3CCC3)cc2o1` [WO2022081807, Example 18], the figure is 24 nM; as for `CCOc1ccccc1S(=O)(=O)NC(=O)c1cc2c(F)cc(N3CC[C@@H]3C(N)=O)cc2o1` [WO2022081807, Example 169], 11 nM; as for `Cc1ccc2cccc(S(=O)(=O)NC(=O)c3cc4c(F)cc(N5CCC5C)cc4o3)c2n1` (stereo not drawn) [WO2022081807, Example 221], 62 nM.
As for `CN(C)c1ccccc1S(=O)(=O)NC(=O)c1cc2c(F)cc(N3CCC3)cc2o1` [WO2022081807, Example 11], the IC50 turned out to be 7.52 nM.

The next assay addresses Histone acetyltransferase KAT6B (Human, UniProt Q8WYB5). The assay can be described thus: Kat6b Activity Assay. The procedure: In this case 50 nl DMSO were used instead of compounds. […] IC50 values were determined by regression analysis based on a 4 parameter equation (minimum, maximum, ICM, Hill; Y = Max + (Min - Max) / (1 + (X/ICso) Hill) using the Screener Software (Genedata).
As to `CC(C)c1ccc(OCc2ccccc2)c(S(=O)(=O)NC(=O)c2cc3c(F)cc(N4CCC4)cc3o2)c1` [WO2022081807, Example 213], the IC50 was determined as 15 nM.
Molecule `CC(C)c1ccc(OCC2CC2(F)F)c(S(=O)(=O)NC(=O)c2cc3c(F)cc(N4CCC4)cc3o2)c1` (racemic) [WO2022081807, Example 231] came in with an IC50 of 29 nM.
The same measure, in the same setting: as for `Cc1ccc2cccc(S(=O)(=O)NC(=O)c3cc4c(F)cc(N5CCC5)cc4o3)c2n1` [WO2022081807, Example 130], the figure is 20 nM; as for `CC(C)c1cccnc1S(=O)(=O)NC(=O)c1cc2c(F)cc(N3CCC3)cc2o1` [WO2022081807, Example 79], 14 nM; as for `CC(C)Oc1ccc(C(C)(C)C)cc1S(=O)(=O)NC(=O)c1cc2c(F)cc(N3CCC3)cc2o1` [WO2022081807, Example 229], 28 nM.
On the same count and under the same terms, as for `CCOc1ccc(C(C)(C)C)cc1S(=O)(=O)NC(=O)c1cc2c(F)cc(N3CC(F)C3)cc2o1` [WO2022081807, Example 113], the figure is 12 nM; as for `CC(C)(C)c1ccc(OC2CCC2)c(S(=O)(=O)NC(=O)c2cc3c(F)cc(N4CCC4)cc3o2)c1` [WO2022081807, Example 228], 13 nM.
Still for that read-out and setting: the figure for `COc1ccc(C(C)C)cc1S(=O)(=O)NC(=O)c1cc2c(F)cc(N3CCC3)cc2o1` [WO2022081807, Example 128] is 15 nM.
In turn, `CC(C)c1ccc(OCC2CC2)c(S(=O)(=O)NC(=O)c2cc3c(F)cc(N4CCC4)cc3o2)c1` [WO2022081807, Example 214] showed an IC50 of 20 nM.
Same read-out and setting: as for `Cc1ccc2cccc(S(=O)(=O)NC(=O)c3cc4c(F)cc(N5CC(F)C5)cc4o3)c2n1` [WO2022081807, Example 152], the figure is 20 nM.
